The values below come from patent US5648379A (priority 1990, dated 1997).

In brackets after ≈: the same amount, converted by molar mass. Like-named read-outs stand apart in the source and are kept apart here.

Usually Ki stands for the equilibrium dissociation constant of an inhibitor or competing ligand from its target. The term IC50 denotes the concentration that gives 50% inhibition.

Assay [1] deals with Neuraminidase from Arthrobacter sialophilus. To be noted: in vitro; Kumar et al. 1981, 1982; cited from earlier work.
Another assay has as its system neuraminidase. Particulars: type of neuraminidase not identified; cited from earlier work.
The target of assay [2] is N2 influenza virus neuraminidase (Influenza A virus, UniProt P06820). In words: biochemical.
The subject of assay [3] is Neuraminidase in at least some strains of influenza or parainfluenza viruses. Particulars: in vitro; Zakstel'skaya et al. 1972; cited from earlier work.
For assay [4], the system named is H2N2 influenza A virus (A/Sing/1/57). It counts as in vivo, mice. To be noted: for % AUC (lung virus titre, compared to untreated mice): days 1-3; for titre of virus in lung tissue: intranasal, before and during challenge, 1 to 3 days after infection.
The target in a further assay is N9 neuraminidase (Influenza A virus, UniProt P03472). Briefly: biochemical. Particulars: read-out: Ki, inhibition of N9 neuraminidase.
Assay [5] concerns influenza A/Singapore/1/57 (H2N2). In words: microbe, parasite or virus in culture. Particulars: H2N2, MDCK, 72 h, read-out: IC50 Plaque Reduction, Influenza A. It counts as cell-based.
Assay [6] has as its system Influenza B/Victoria/102/85. Briefly: microbe, parasite or virus in culture. It counts as cell-based. Particulars: MDCK, 72 h, read-out: IC50 Plaque Reduction, Influenza B.
In a further assay the test system is influenza virus. In words: microbe, parasite or virus in culture. Particulars: unidentified influenza virus, read-out: IC50 plaque reduction. It counts as cell-based.
Setting [7] is: N2, 37° C., read-out: Ki, inhibition of N2 neuraminidase.
Where [8] appears, read: Experiment 1, 25 mg/kg intranasal.
Setting [9] is: Experiment 2, 12.5 mg/kg intranasal.
[10] abbreviates: Experiment 3, 12.5 mg/kg intranasal.

Sequence of N2 influenza virus neuraminidase (P06820 whole entry, looked up): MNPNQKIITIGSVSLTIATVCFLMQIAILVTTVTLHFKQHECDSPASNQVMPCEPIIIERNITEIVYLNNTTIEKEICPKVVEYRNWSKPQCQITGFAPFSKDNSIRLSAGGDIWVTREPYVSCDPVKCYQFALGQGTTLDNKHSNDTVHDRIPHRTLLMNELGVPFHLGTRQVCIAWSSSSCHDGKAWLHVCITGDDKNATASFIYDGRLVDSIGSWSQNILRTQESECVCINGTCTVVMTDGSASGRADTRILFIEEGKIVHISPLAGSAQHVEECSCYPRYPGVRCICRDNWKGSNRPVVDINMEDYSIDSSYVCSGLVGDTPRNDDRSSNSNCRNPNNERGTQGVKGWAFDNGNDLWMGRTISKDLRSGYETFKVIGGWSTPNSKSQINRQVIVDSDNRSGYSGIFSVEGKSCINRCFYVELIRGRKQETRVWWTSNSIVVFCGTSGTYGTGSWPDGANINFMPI
Sequence of N9 neuraminidase (P03472 whole entry, looked up): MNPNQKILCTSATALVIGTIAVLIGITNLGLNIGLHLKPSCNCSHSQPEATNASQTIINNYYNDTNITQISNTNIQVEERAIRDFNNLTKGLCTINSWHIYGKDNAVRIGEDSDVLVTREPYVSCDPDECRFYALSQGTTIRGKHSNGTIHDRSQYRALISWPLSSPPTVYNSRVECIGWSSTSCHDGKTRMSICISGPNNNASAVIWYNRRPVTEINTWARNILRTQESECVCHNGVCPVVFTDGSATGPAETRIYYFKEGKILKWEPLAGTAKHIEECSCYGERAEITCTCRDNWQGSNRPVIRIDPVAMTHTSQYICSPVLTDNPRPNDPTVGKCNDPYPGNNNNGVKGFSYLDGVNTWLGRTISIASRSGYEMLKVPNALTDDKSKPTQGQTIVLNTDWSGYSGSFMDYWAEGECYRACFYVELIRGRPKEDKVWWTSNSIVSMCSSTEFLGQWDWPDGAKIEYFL

With `CC(=O)N[C@H]1[C@H]([C@H](O)[C@H](O)CO)OC(C(=O)O)=C[C@H]1O` [2,3-dehydro-4-epi-N-acetyl-neuraminic acid], in assay [1], the “inhibition of Arthrobacter sialophilus neuraminidase” value is recorded as “inhibited in vitro”.
Turning to `N[C@H]1[C@H]([C@H](O)[C@H](O)CO)SC(C(=O)O)=C[C@@H]1O` [2-deoxy-2,3-didehydro-6-thioneuraminic acid], in the assay with neuraminidase, the inhibition of neuraminidase entry is “reported to inhibit neuraminidase”.
Take `CC(=O)N[C@H]1[C@H]([C@H](O)[C@H](O)CO)O[C@@H](C(=O)O)C[C@@H]1O` [2-deoxy-N acetyl-α-D-neuraminic acid, 2-deoxy-N-acetyl-α-D-neuraminic acid, reference compound]: in [2] (setting [7]), the Ki stood at 300 µM.
As for `[N-]=[N+]=NC1(C(=O)O)C[C@H](O)[C@@H](N)[C@H]([C@H](O)[C@H](O)CO)S1` (stereo partly drawn) [2-α-azido-6-thio-neuraminic acid], the inhibition of neuraminidase result with neuraminidase is “reported to inhibit neuraminidase”.
As for `O=C1CNC(=O)[C@H]([C@H](O)[C@H](O)CO)O1` [3-aza-2,3,4-trideoxy-4-oxo-D-arabinoctonic acid δ-lactone], the “inhibition of influenza or parainfluenza virus neuraminidase” value in [3] is on record as “inhibited in vitro”.
Take `CC(=O)N[C@@H]1C(=O)C=C(C(=O)O)O[C@H]1[C@H](O)[C@H](O)CO` [5-acetamido-2,6-anhydro-2,3,5-trideoxy-D-manno-non-2-en-4-ulosonate]: the “inhibition of Arthrobacter sialophilus neuraminidase” value in assay [1] is given as “inhibited in vitro”.
As to `NC12CC3CC(CC(C3)C1)C2` [Amantadine], the “% AUC (lung virus titre, compared to untreated mice)” value (“% AUC” for short) in assay [4] (setting [8]) was found to be 0.08%; in [4] (setting [9]) it was 0.03%; in assay [4] (Experiment 2, 25 mg/kg), 0.2%; in assay [4] (setting [10]), 8.8%.
Turning to `CC(=O)N[C@H]1[C@H]([C@H](O)[C@H](O)CO)OC(C(=O)O)=C[C@@H]1N=[N+]=[N-]` [Compound 4, Sodium 5-Acetamido-4-azido-2,3,4,5-tetradeoxy-D-glycero-D-galacto-non-2-enopyranosonate], the Ki in assay [2] (setting [7]) came to 2 µM.
For the molecule `CC(=O)N[C@H]1[C@H]([C@H](O)[C@H](O)CO)OC(C(=O)O)=C[C@@H]1N` [Compound 6, Sodium 5-Acetamido-4-amino-2,3,4,5-tetradeoxy-D-glycero-D-galacto-non-2-enopyranosonate], the Ki in assay [2] (setting [7]) amounted to 0.06 µM; in assay [2] (read-out: Ki, inhibition of N2 virus neuraminidase), 0.01 µM; at N9 neuraminidase, 0.19 µM. Further, the IC50 in [5] and in assay [6] was 1.6 µM throughout. Moreover, the “% AUC” value in assay [4] (setting [8]) was 0.06%. In assay [4], the “titre of virus in lung tissue” value is “reduced the titre of virus in lung tissue”.
As to `C=CCN(CC=C)[C@H]1C=C(C(=O)O)O[C@@H]([C@H](O)[C@H](O)CO)[C@@H]1NC(C)=O` [Compound 9, Sodium 5-Acetamido-4-N,N-diallylamino-2,3,4,5-tetradeoxy-D-glycero-D-galacto-non-2-enopyranosonate], the Ki in assay [2] (setting [7]) came out at 4 µM.
For the molecule `C=CCN[C@H]1C=C(C(=O)O)O[C@@H]([C@H](O)[C@H](O)CO)[C@@H]1NC(C)=O` [Compound 11, Sodium 5-Acetamido-4-N-allylamino-2,3,4,5-tetra-deoxy-D-glycero-D-galacto-non-2-enopyranosonate], the Ki (in assay [2] (setting [7]); on N9 neuraminidase) was 2.5 µM in each case.
In the case of `COC(=O)C1=C[C@@H](N)[C@@H](NC(C)=O)[C@H]([C@H](OC(C)=O)[C@@H](COC(C)=O)OC(C)=O)O1` [Compound 12, Methyl 5-acetamido-7,8,9-tri-O-acetyl-4-amino-2,3,4,5-tetradeoxy-D-glycero-D-talo-non-2-enopyranosonate], the Ki in [2] (setting [7]) is approximately 3000 µM.
Same read-out and setting: with `COC(=O)C1=C[C@H]2OC(C)=N[C@H]2[C@H]([C@H](OC(C)=O)[C@@H](COC(C)=O)OC(C)=O)O1` [Compound 13, Methyl 7,8,9-tri-O-acetyl-2,3,5-trideoxy-4',5'-dihydro-2'-methyloxazolo [5,4-d] D-glycero-D-talo-non-2-enopyranosonate] the figure was 30 µM.
Regarding `CC(=O)N[C@H]1[C@H]([C@H](O)[C@H](O)CO)OC(C(=O)O)=C[C@H]1N` [Compound 14, Sodium 5-Acetamido-4-amino-2,3,4,5-tetra deoxy-D-glycero-D-talo-non-2-enopyranosonate], the Ki (in [2] (setting [7]); at N9 neuraminidase) was 0.1 µM each time. Also, the IC50 worked out at 3 µM in assay [5] and 1.2 µM in assay [6]. The “% AUC” value in assay [4] (setting [10]) is reported as 21.1%. In addition, the “titre of virus in lung tissue” value in [4] was “reduced the titre of virus in lung tissue”.
As for `CC(=O)N[C@H]1[C@H]([C@H](O)[C@H](O)CO)OC(C(=O)O)=C[C@H]1N=[N+]=[N-]` [Compound 17, Sodium 5-acetamido-4-azido-2,3,4,5-tetradeoxy-D-glycero-D-talo-non-2-enopyranosonate], the Ki in [2] (setting [7]) came out at 28 µM.
For the molecule `CN[C@H]1C=C(C(=O)O)O[C@@H]([C@H](O)[C@H](O)CO)[C@@H]1NC(C)=O` [Compound 20, Sodium 5-acetamido-4-N-methylamino-2,3,4.5-tetradeoxy-D-glycero-D-galacto-non-2-enopyranosonate], in [2] (setting [7]), the Ki worked out at 1.15 µM.
On the same count and under the same terms, with `CC(=O)N[C@H]1[C@H]([C@H](O)[C@H](O)CO)OC(C(=O)O)=C[C@@H]1N(C)C` [Compound 23, Sodium 5-acetamido-4-N,N-dimethylamino-2,3,4,5-tetradeoxy-D-glycero-D-galacto-non-2-enopyranosonate] the figure was 0.7 µM.
Take `COC(=O)CN[C@H]1C=C(C(=O)OC)O[C@@H]([C@H](O)[C@H](O)CO)[C@@H]1NC(C)=O` [Compound 25, Methyl 5-acetamido-4-N-methoxycarbonylmethylamino-2,3,4,5-tetradeoxy-D-glycero-D-galacto-non-2-enopyranosonate]: the Ki in assay [2] (setting [7]) is 7 µM.
As for `CC(=O)N[C@H]1[C@H]([C@H](O)[C@H](O)CO)OC(C(=O)O)=C[C@@H]1NCCO` [Compound 29, Sodium 5-acetamido-4-N-2'-hydroxyethylamino-2,3,4,5-tetradeoxy-D-glycero-D-galacto-non-2-enopyranosonate], the Ki (in assay [2] (setting [7]); on N9 neuraminidase) was 1.6 µM in each case. Further, the IC50 in assay [5] stood at 60 µM; in assay [6], 7 µM.
As for `O=C(O)C1=C[C@H](O)[C@@H](O)[C@H]([C@H](O)[C@H](O)CO)O1` [Compound 35, Sodium 2,-3-dideoxy-D-glycero-D-galacto-non-2-enopyranosonate], in assay [2] (setting [7]), the inhibition constant Ki amounted to 480 µM.
On to `N[C@H]1[C@H]([C@H](O)[C@H](O)CO)OC(C(=O)O)=C[C@@H]1N` [Compound 38, Sodium 4,5-Diamino-2,3,4,5-tetradeoxy-D-glycero-D-galacto-non-2-enopyranosonate], for which the inhibition constant (Ki) in assay [2] (setting [7]) stood at 0.65 µM. In addition, the IC50 in assay [5] worked out at 11 µM; in [6], 6.8 µM.
Consider `COC(=O)C1=C[C@H](O)[C@@H](NC(C)=O)[C@H]([C@H](O)[C@H](O)CNC(C)=O)O1` [Compound 41, Methyl 5,9-diacetamido-2,3,5,9-tetradeoxy-D-glycero-D-galacto-non-2-enopyranosonate], for which the Ki in assay [2] (setting [7]) was determined as 36 µM.
The same measure, in the same setting: with `CC(=O)NC[C@@H](O)[C@@H](O)[C@@H]1OC(C(=O)O)=C[C@H](O)[C@H]1NC(C)=O` [Compound 42, 5,9-diacetamido-2,3,5,9-tetradeoxy-D-glycero-D-galacto-non-2-enopyranosonicacid] the figure was 14.5 µM; with `COC(=O)C1=C[C@H](O)[C@@H](NC(C)=O)[C@H]([C@H](O)[C@H](O)CC#N)O1` [Compound 43, Methyl 5-acetamido-9-cyano-2,3,5,9-tetradeoxy-D-glycero-D-galacto-non-2-enopyranosonate], approximately 3000 µM.
With `CC(=O)N[C@H]1[C@H]([C@H](O)[C@H](O)CC#N)OC(C(=O)O)=C[C@@H]1O` [Compound 44, 5-Acetamido-9-cyano-2,3,5,9-tetradeoxy-D-glycero-D-galacto-non-2-enopyranosonic acid], the Ki in [2] (setting [7]) was 3 µM.
As to `C=CCN(O)[C@H]1C=C(C(=O)O)O[C@@H]([C@H](O)[C@H](O)CO)[C@@H]1NC(C)=O` [Compound 45, Sodium 5-acetamido-4-N-allyl-N-hydroxy-2,3,4,5-tetradeoxy-D-glycero-D-galacto-non-2-enopyranosonate], the IC50 amounted to 4.7 µM in assay [5] and 2.7 µM in [6].
With `CC(=O)N[C@H]1[C@H]([C@H](O)[C@H](O)CO)OC(C(=O)O)=C[C@@H]1O` [DANA, 2-deoxy-2,3-didehydro-N-acetylneuraminic acid], the “% AUC” value is reported as 0.18% in [4] (setting [8]), 2.0% in assay [4] (setting [9]) and 48.0% in assay [4] (setting [10]). Besides, the “titre of virus in lung tissue” value in assay [4] was “reduced the titre of virus in lung tissue”. In addition, in the assay with influenza virus, the IC50 is 5 µg/mL (≈ 17.2 µM). In addition, in assay [1], the “inhibition of Arthrobacter sialophilus neuraminidase” value is listed as “inhibited in vitro”.
As for `CC(=O)N[C@H]1[C@H]([C@H](O)[C@H](O)CO)OC(F)(C(=O)O)C(F)[C@@H]1O` (stereo partly drawn) [N-acetyl-2,3-difluoro-α-D-neuraminic acid], the inhibition of neuraminidase result in the assay with neuraminidase is given as “reported to inhibit neuraminidase”.
As to `NC(=O)c1ncn([C@@H]2O[C@H](CO)[C@@H](O)[C@H]2O)n1` [Ribavirin], the “% AUC” value in [4] (Experiment 2, 25 mg/kg) was 29.8%.
